Consider eight molecules from patent US12605451B2, “Targeted plasma protein degradation” (Novartis AG, priority 2020, dated 2026).

Read-outs that look alike come from different tables or passages of the source. Positions of bridges follow the written chain, without caps; N, C: chain ends. Non-standard residues stand in square brackets, D forms with d. Residues, ends and D or L forms follow the SMILES beside them. *: point of attachment. X4 = CC(=O)N[C@H]1[C@H](OCCCCC(=O)NCCCNCC(=O)CCOCC(COCCC(=O)NCCCNC(=O)CCCCO[C@@H]2O[C@H](CO)[C@H](O)[C@H](O)[C@H]2NC(C)=O)(COCCC(=O)NCCCNC(=O)CCCCO[C@@H]2O[C@H](CO)[C@H](O)[C@H](O)[C@H]2NC(C)=O)NC(=O)CCCCCCC(=O)*)O[C@H](CO)[C@H](O)[C@@H]1O; X2 = CC(=O)N[C@H]1[C@H]2OC[C@](COCCOCCOCCOCCn3cc(COCC(COCc4cn(CCOCCOCCOCCOC[C@@]56CO[C@@H](O5)[C@H](NC(C)=O)[C@@H](O)[C@H]6O)nn4)NC(=O)CCOCCOCCOCCOCCC(=O)*)nn3)(O2)[C@H](O)[C@@H]1O; Bip = N[C@@H](Cc1ccc(-c2ccccc2)cc1)C(=O)O; Levulinoyl = CC(=O)CCC(=O)*; NMeA = CN[C@@H](C)C(=O)O A value given as a limit tells only on which side of the number the result lay.

The target in one assay is T1, human ASGPR1 (Homo sapiens, UniProt P07306).
T1 construct: Recombinant extracellular domain of human ASGPR1 with N-terminal biotinylated Avitag
T1 sequence (P07306 62-291 limits assumed): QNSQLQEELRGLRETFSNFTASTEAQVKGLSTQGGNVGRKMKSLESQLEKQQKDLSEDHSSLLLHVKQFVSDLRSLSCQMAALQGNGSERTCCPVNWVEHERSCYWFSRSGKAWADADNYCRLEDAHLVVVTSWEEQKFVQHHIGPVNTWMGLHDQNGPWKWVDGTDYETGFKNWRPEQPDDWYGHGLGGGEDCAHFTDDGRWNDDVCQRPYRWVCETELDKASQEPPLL
Briefly: ASGPR1 SPR direct binding (Biacore, SA chip). As to the method: SPR was used to obtain the binding data for ASGP receptor ligand compound (int-CC2), either alone or as part of the bifunctional compounds (BFC-13), (BFC-15) and (BFC16).
(§1) ASGPR1 SPR experiments were performed on either Biacore T200 or Biacore 8K. The assay was optimized for Biacore (Streptavidin) SA chip in running buffer consisting of 20 mM HEPES, 300 mM NaCl, 2 mM CaCl2, 0.01% tween-20, 2% DMSO, pH 7.4. Recombinant extracellular domain of human ASGPR1 with N-terminal biotinylated Avitag was diluted to 20 μg/mL in running buffer, and immobilized onto SA chip after it was preconditioned with at least four 60-second injections at 30 uL/min of 1 M NaCl/40 mM NaOH solution. Protein immobilization level varied from 500 RU to 3500 RU dependent on analytes' molecular weight, for targeted Rmax of 30 RUs. Direct binding of analytes to ASGPR1 was observed when a dose response titration of analytes in 2% DMSO was flown over the immobilized protein. Data analysis was done on either Biacore T200 Evaluation Software or Biacore Insight Evaluation Software.
SPR was used to obtain the binding data for ASGP receptor ligand compounds (int-CC2), either alone or as part of the bifunctional compounds (BFC1).
as §1, with “Biacore” for “Biacore (Streptavidin)”
A general note: Surface plasmon resonance follows binding to a sensor surface in real time, without labels.

The target in a further assay is T2, human PCSK9 (Homo sapiens, UniProt Q8NBP7).
T2 construct: Purified recombinant full length human PCSK9 with C-terminal biotinylated Avitag
Briefly: SPR binding to biotinylated human PCSK9 (Proteon XPR36). As to the method:
SPR was used to obtain the binding data for PCSK9 receptor ligand compound (C5), either alone or as part of the bifunctional compounds (BFC1), respectively.
SPR Binding experiments were performed on a Proteon XPR36 instrument (Bio-Rad Laboratories). Purified recombinant full length human PCSK9 with C-terminal biotinylated Avitag was used for the assay. Biotinylated human PCSK9 was incubated with fivefold molar excess of bifunctional compound (BFC1) or compound (C5), and immobilized onto a Neutravidin coated sensor chip. (NLC chip, Bio-Rad Laboratories, Inc). After conditioning the chip by injecting running buffer (20 mM Tris pH7.5, 300 mM NaCl, 25 mM CaCl2, 2 mM betamercaptoethanol, 2% DMSO and 0.05% Tween-20) at a flow rate of 0.1 mL/min for 240 s, PCSK9 protein was injected at a protein concentration of 0.02 mg/ml in running buffer with fivefold molar excess of bifunctional compound and a flow rate of 0.03 mL/min followed by 4 washes with running buffer with 1 μM of bifunctional compound (0.1 mL/min for 60 seconds each).
To perform sandwich SPR binding assays, His-ASGPR1 (62-291) protein stocks were diluted with running buffer to a desired concentration. ASGPR was injected at a flow rate of 0.1 mL/min for 240 s and allowed to dissociate for 1200 s. Sensorgrams were recorded for association and dissociation phases. All sensorgrams were processed by subtracting the binding response recorded from a blank control surfaces (or interspot surfaces), followed by subtracting buffer blank injections from the reaction surface. Data were processed with the ProteOn Manager software (version 3.1.0.6, Bio-Rad, Inc.).

Where [1] appears, read: Bifunctional Compound (PCSK9 series), Table 9, read-out: ASGPR binding KD.
The mark [2] stands for this setting: Bifunctional Compound, SPR, read-out: PCSK9 KD.
Setting [3] is: Free Ligand, SPR, read-out: PCSK9 KD.

T2 sequence (Q8NBP7 153-692): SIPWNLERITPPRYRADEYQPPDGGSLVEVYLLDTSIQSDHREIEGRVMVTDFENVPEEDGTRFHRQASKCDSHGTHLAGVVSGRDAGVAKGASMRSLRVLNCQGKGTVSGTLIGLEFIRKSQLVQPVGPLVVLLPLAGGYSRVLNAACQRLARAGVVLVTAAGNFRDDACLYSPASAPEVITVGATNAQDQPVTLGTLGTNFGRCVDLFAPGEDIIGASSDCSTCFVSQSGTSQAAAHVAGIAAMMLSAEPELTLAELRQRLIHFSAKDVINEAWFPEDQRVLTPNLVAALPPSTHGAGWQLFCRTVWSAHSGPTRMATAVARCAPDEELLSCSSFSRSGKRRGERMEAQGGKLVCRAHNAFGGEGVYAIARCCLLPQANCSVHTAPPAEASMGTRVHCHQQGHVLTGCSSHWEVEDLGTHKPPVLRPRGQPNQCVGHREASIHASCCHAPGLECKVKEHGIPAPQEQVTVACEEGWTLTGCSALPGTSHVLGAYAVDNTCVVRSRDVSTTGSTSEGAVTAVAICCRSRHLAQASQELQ

By Kd is commonly meant the free concentration of one partner at which half of the binding sites on the other are occupied at equilibrium, for simple one-to-one binding. In the case of `CC(=O)N[C@H]1[C@H](OCCCCC(=O)NCCCNCC(=O)CCOCC(COCCC(=O)NCCCNC(=O)CCCCO[C@@H]2O[C@H](CO)[C@H](O)[C@H](O)[C@H]2NC(C)=O)(COCCC(=O)NCCCNC(=O)CCCCO[C@@H]2O[C@H](CO)[C@H](O)[C@H](O)[C@H]2NC(C)=O)NC(=O)CCCCCCC(=O)NCCCC[C@H](NC(=O)CNC(=O)[C@@H]2CSCC(=O)N[C@@H](Cc3ccccc3)C(=O)N[C@@H](C(C)C)C(=O)N3CCC[C@H]3C(=O)N[C@@H]([C@@H](C)O)C(=O)N[C@@H]([C@@H](C)O)C(=O)N[C@@H](Cc3ccc(-c4ccccc4)cc3)C(=O)N(C)[C@@H](C)C(=O)N[C@@H](Cc3ccc(-c4ccccc4)cc3)C(=O)N(C)[C@@H](C)C(=O)N[C@@H](CCC(=O)O)C(=O)N[C@@H](C)C(=O)N3CCC[C@H]3C(=O)N2)C(N)=O)O[C@H](CO)[C@H](O)[C@@H]1O` [BFC-1] ({CH2CO}-FVPTT[Bip][NMeA][Bip][NMeA]EAPCGK(X4)-NH2; thioether N-13), the dissociation constant Kd stood at 0.32 nM on human ASGPR1 (setting [1]) and 3.9 nM at human PCSK9 (setting [2]).

`COC[C@@H]1NC(=O)[C@H](CCCNC(=O)CCOCCOCCOCCOCCC(=O)NCCOCc2cn(CCOCCOCCOCCOC[C@@]34CO[C@@H](O3)[C@H](NC(C)=O)[C@@H](O)[C@H]4O)nn2)N(Cc2ccc(Cl)cc2Oc2ccc(-c3cnc(CN(C)C)n3C)cc2)C(=O)C[C@@H](Cc2ccccc2)C(=O)N(C)[C@H]2CCCC[C@@H]2NC(=O)C[C@H](Cc2ccc(Cl)cc2)N(C)C1=O` [BFC-12]: at human ASGPR1 (setting [1]), the Kd is 22 nM.

Regarding `CC(=O)N[C@H]1[C@H]2OC[C@](COCCOCCOCCOCCn3cc(COCC(COCc4cn(CCOCCOCCOCCOC[C@@]56CO[C@@H](O5)[C@H](NC(C)=O)[C@@H](O)[C@H]6O)nn4)(COCc4cn(CCOCCOCCOCCOC[C@@]56CO[C@@H](O5)[C@H](NC(C)=O)[C@@H](O)[C@H]6O)nn4)NC(=O)CCOCCOCCOCCOCCC(=O)NCCCC[C@H](NC(=O)CNC(=O)[C@@H]4CSCC(=O)N[C@@H](Cc5ccccc5)C(=O)N[C@@H](C(C)C)C(=O)N5CCC[C@H]5C(=O)N[C@@H]([C@@H](C)O)C(=O)N[C@@H]([C@@H](C)O)C(=O)N[C@@H](Cc5ccc(-c6ccccc6)cc5)C(=O)N(C)[C@@H](C)C(=O)N[C@@H](Cc5ccc(-c6ccccc6)cc5)C(=O)N(C)[C@@H](C)C(=O)N[C@@H](CCC(=O)O)C(=O)N[C@@H](C)C(=O)N5CCC[C@H]5C(=O)N4)C(N)=O)nn3)(O2)[C@H](O)[C@@H]1O` [BFC-6], the dissociation constant Kd is less than 1 nM at human ASGPR1 (setting [1]) and 5.8 nM on human PCSK9 (setting [2]).

Regarding `CC(C)[C@@H]1NC(=O)[C@H](Cc2ccccc2)NC(=O)CSC[C@@H](C(=O)NCC(=O)N[C@@H](CCCCNC(=O)OC[C@@H]2[C@@H]3CCc4c(nnn4CCCCCCO[C@H](O[C@@H](/C=N/OCC(=O)NNC(=O)CCCO[C@@H]4O[C@H](CO[C@H]5O[C@H](CO[C@H]6O[C@H](CO)[C@@H](O)[C@H](O)[C@@H]6O[C@H]6O[C@H](COP(=O)(O)O)[C@@H](O)[C@H](O)[C@@H]6O)[C@@H](O)[C@H](O)[C@@H]5O)[C@@H](O)[C@H](O[C@H]5O[C@H](CO)[C@@H](O)[C@H](O)[C@@H]5O[C@H]5O[C@H](COP(=O)(O)O)[C@@H](O)[C@H](O)[C@@H]5O)[C@@H]4O)CO)[C@H](O)/C=N\OCC(=O)NNC(=O)CCCO[C@@H]4O[C@H](CO[C@H]5O[C@H](CO[C@H]6O[C@H](CO)[C@@H](O)[C@H](O)[C@@H]6O[C@H]6O[C@H](COP(=O)(O)O)[C@@H](O)[C@H](O)[C@@H]6O)[C@@H](O)[C@H](O)[C@@H]5O)[C@@H](O)[C@H](O[C@H]5O[C@H](CO)[C@@H](O)[C@H](O)[C@@H]5O[C@H]5O[C@H](COP(=O)(O)O)[C@@H](O)[C@H](O)[C@@H]5O)[C@@H]4O)CC[C@@H]32)C(N)=O)NC(=O)[C@@H]2CCCN2C(=O)[C@H](C)NC(=O)[C@H](CCC(=O)O)NC(=O)[C@H](C)N(C)C(=O)[C@H](Cc2ccc(-c3ccccc3)cc2)NC(=O)[C@H](C)N(C)C(=O)[C@H](Cc2ccc(-c3ccccc3)cc2)NC(=O)[C@H]([C@@H](C)O)NC(=O)[C@H]([C@@H](C)O)NC(=O)[C@@H]2CCCN2C1=O` [BFC-3], the Kd on human PCSK9 came out at 7.7 nM.

As for `COC[C@@H]1NC(=O)[C@H](CCCN)N(Cc2ccc(Cl)cc2Oc2ccc(-c3cnc(CN(C)C)n3C)cc2)C(=O)C[C@@H](Cc2ccccc2)C(=O)N(C)[C@H]2CCCC[C@@H]2NC(=O)C[C@H](Cc2ccc(Cl)cc2)N(C)C1=O` [C9, (4S,7S,10S,14R,16aS,20aS)-10-(3-aminopropyl)-14-benzyl-11-(4-chloro-2-(4-(2-((dimethylamino)methyl)-1-methyl-1H-imidazol-5-yl)phenoxy)benzyl)-4-(4-chlorobenzyl)-7-(methoxymethyl)-5,16-dimethylhexadecahydrobenzo[1][1,4,7,11,14]pentaazacyclooctadecine-2,6,9,12,15 (3H)-pentaone], the Kd at human PCSK9 (setting [3]) was less than 1 nM.

Consider `CC(=O)N[C@H]1[C@H]2OC[C@](COCCOCCOCCOCCn3cc(COCC(COCc4cn(CCOCCOCCOCCOC[C@@]56CO[C@@H](O5)[C@H](NC(C)=O)[C@@H](O)[C@H]6O)nn4)NC(=O)CCOCCOCCOCCOCCC(=O)NCCCC[C@H](NC(=O)CNC(=O)[C@@H]4CSCC(=O)N[C@@H](Cc5ccccc5)C(=O)N[C@@H](C(C)C)C(=O)N5CCC[C@H]5C(=O)N[C@@H]([C@@H](C)O)C(=O)N[C@@H]([C@@H](C)O)C(=O)N[C@@H](Cc5ccc(-c6ccccc6)cc5)C(=O)N(C)[C@@H](C)C(=O)N[C@@H](Cc5ccc(-c6ccccc6)cc5)C(=O)N(C)[C@@H](C)C(=O)N[C@@H](CCC(=O)O)C(=O)N[C@@H](C)C(=O)N5CCC[C@H]5C(=O)N4)C(N)=O)nn3)(O2)[C@H](O)[C@@H]1O` (some centres unmarked) [BFC-7] ({CH2CO}-FVPTT[Bip][NMeA][Bip][NMeA]EAPCGK(X2)-NH2; thioether N-13), for which the Kd on human ASGPR1 (setting [1]) came to 7 nM; on human PCSK9 (setting [2]), 3.5 nM.

For `CC(=O)CCC(=O)NCCCC[C@H](NC(=O)CNC(=O)[C@@H]1CSCC(=O)N[C@@H](Cc2ccccc2)C(=O)N[C@@H](C(C)C)C(=O)N2CCC[C@H]2C(=O)N[C@@H]([C@@H](C)O)C(=O)N[C@@H]([C@@H](C)O)C(=O)N[C@@H](Cc2ccc(-c3ccccc3)cc2)C(=O)N(C)[C@@H](C)C(=O)N[C@@H](Cc2ccc(-c3ccccc3)cc2)C(=O)N(C)[C@@H](C)C(=O)N[C@@H](CCC(=O)O)C(=O)N[C@@H](C)C(=O)N2CCC[C@H]2C(=O)N1)C(N)=O` [C5] ({CH2CO}-FVPTT[Bip][NMeA][Bip][NMeA]EAPCGK(Levulinoyl)-NH2; thioether N-13), the Kd on human PCSK9 (setting [3]) came out at 1.2 nM.

For `CC(=O)N[C@H]1[C@H](OCCCCC(=O)NCCCNC(=O)CCOCC(N)(COCCC(=O)NCCCNC(=O)CCCCOC2O[C@H](CO)[C@H](O)[C@H](O)[C@H]2NC(C)=O)COCCC(=O)NCCCNC(=O)CCCCO[C@@H]2O[C@H](CO)[C@H](O)[C@H](O)[C@H]2NC(C)=O)O[C@H](CO)[C@H](O)[C@@H]1O` (stereo partly drawn) [int-CC2, N,N′-(10-((3-((3-(5-(((3R,4R,5R,6R)-3-acetamido-4,5-dihydroxy-6-(hydroxymethyl)tetrahydro-2H-pyran-2-yl)oxy)pentanamido)propyl)amino)-3-oxopropoxy)methyl)-10-amino-5,15-dioxo-8,12-dioxa-4,16-diazanonadecane-1,19-diyl)bis(5-(((2R,3R,4R,5R,6R)-3-acetamido-4,5-dihydroxy-6-(hydroxymethyl)tetrahydro-2H-pyran-2-yl)oxy)pentanamide)], at human ASGPR1 (Free Ligand, Table 7, read-out: ASGPR KD), the Kd came out at 0.9 nM.
